# Assay results as given in ChEMBL document CHEMBL1201862, “PubChem BioAssay data set” (2004).
#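 Assay format: 96-well plates, 48-hour exposure. Abbreviation: GI50, concentration required for 50% inhibition of growth.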 Activity calls are given as the source filed them. Cut-off read from the data, not from the text of the source: active = GI50 up to about 1.1 µM and inactive = higher.
# What was measured:
# Assay in all cases: NCI anticancer screen, dose series, 48 h
# 786-0 = tested on: 786-0
# A498 = tested on: A498
# A549 = tested on: A549
# ACHN = tested on: ACHN
# CAKI-1 = tested on: CAKI-1
# CCRF-CEM = tested on: CCRF-CEM
# COLO 205 = tested on: COLO 205
# DMS-114 = tested on: DMS-114
# DMS-273 = tested on: DMS-273
# EKVX = tested on: EKVX
# HCT-116 = tested on: HCT-116
# HCT-15 = tested on: HCT-15
# HL-60 = tested on: HL-60
# HOP-18 = tested on: HOP-18
# HOP-62 = tested on: HOP-62
# HOP-92 = tested on: HOP-92
# HT-29 = tested on: HT-29
# IGROV-1 = tested on: IGROV-1
# K562 = tested on: K562
# KM-20L2 = tested on: KM-20L2
# KM12 = tested on: KM12
# LOX IMVI = tested on: LOX IMVI
# LXFL 529 = tested on: LXFL 529
# M14 = tested on: M14
# M19-MEL = tested on: M19-MEL
# MOLT-4 = tested on: MOLT-4
# Malme-3M = tested on: Malme-3M
# NCI-H226 = tested on: NCI-H226
# NCI-H23 = tested on: NCI-H23
# NCI-H460 = tested on: NCI-H460
# NCI-H522 = tested on: NCI-H522
# OVCAR-4 = tested on: OVCAR-4
# OVCAR-5 = tested on: OVCAR-5
# OVCAR-8 = tested on: OVCAR-8
# RPMI-8226 = tested on: RPMI-8226
# RXF 393 = tested on: RXF 393
# RXF 631 = tested on: RXF 631
# SF-268 = tested on: SF-268
# SF-295 = tested on: SF-295
# SF-539 = tested on: SF-539
# SK-MEL-28 = tested on: SK-MEL-28
# SK-MEL-2 = tested on: SK-MEL-2
# SK-MEL-5 = tested on: SK-MEL-5
# SK-OV-3 = tested on: SK-OV-3
# SN12C = tested on: SN12C
# SNB-19 = tested on: SNB-19
# SNB-75 = tested on: SNB-75
# SNB-78 = tested on: SNB-78
# SR = tested on: SR
# SW-620 = tested on: SW-620
# TK-10 = tested on: TK-10
# U-251 = tested on: U-251
# UACC-257 = tested on: UACC-257
# UACC-62 = tested on: UACC-62
# UO-31 = tested on: UO-31
# XF498 = tested on: XF498
# DLD-1 = tested on: DLD-1
# HCC 2998 = tested on: HCC 2998
# OVCAR-3 = tested on: OVCAR-3
smiles,measurement,setting,value
CC(C)(C)N/N=C(\Cc1occc(=O)c1O)C(=O)Nc1ccc([N+](=O)[O-])cc1[N+](=O)[O-],GI50,786-0,> 100 µM (inactive)
same,GI50,A498,> 100 µM (inactive)
same,GI50,A549,> 100 µM (inactive)
same,GI50,ACHN,> 100 µM (inactive)
same,GI50,CAKI-1,> 100 µM (inactive)
same,GI50,CCRF-CEM,> 100 µM (inactive)
same,GI50,COLO 205,> 100 µM (inactive)
same,GI50,DMS-114,> 100 µM (inactive)
same,GI50,DMS-273,> 100 µM (inactive)
same,GI50,EKVX,66.5 µM (inactive)
same,GI50,HCT-116,> 100 µM (inactive)
same,GI50,HCT-15,> 100 µM
same,GI50,HL-60,> 100 µM (inactive)
same,GI50,HOP-18,> 100 µM (inactive)
same,GI50,HOP-62,> 100 µM (inactive)
same,GI50,HOP-92,> 100 µM (inactive)
same,GI50,HT-29,> 100 µM (inactive)
same,GI50,IGROV-1,> 100 µM (inactive)
same,GI50,K562,> 100 µM (inactive)
same,GI50,KM-20L2,> 100 µM (inactive)
same,GI50,KM12,> 100 µM (inactive)
same,GI50,LOX IMVI,> 100 µM (inactive)
same,GI50,LXFL 529,> 100 µM (inactive)
same,GI50,M14,> 100 µM (inactive)
same,GI50,M19-MEL,> 100 µM (inactive)
same,GI50,MOLT-4,> 100 µM (inactive)
same,GI50,Malme-3M,> 100 µM (inactive)
same,GI50,NCI-H226,> 100 µM (inactive)
same,GI50,NCI-H23,> 100 µM (inactive)
same,GI50,NCI-H460,> 100 µM (inactive)
same,GI50,NCI-H522,> 100 µM (inactive)
same,GI50,OVCAR-4,> 100 µM (inactive)
same,GI50,OVCAR-5,> 100 µM (inactive)
same,GI50,OVCAR-8,> 100 µM (inactive)
same,GI50,RPMI-8226,> 100 µM (inactive)
same,GI50,RXF 393,> 100 µM (inactive)
same,GI50,RXF 631,> 100 µM (inactive)
same,GI50,SF-268,> 100 µM (inactive)
same,GI50,SF-295,> 100 µM (inactive)
same,GI50,SF-539,> 100 µM (inactive)
same,GI50,SK-MEL-28,> 100 µM (inactive)
same,GI50,SK-MEL-2,> 100 µM (inactive)
same,GI50,SK-MEL-5,> 100 µM (inactive)
same,GI50,SK-OV-3,> 100 µM (inactive)
same,GI50,SN12C,> 100 µM (inactive)
same,GI50,SNB-19,> 100 µM (inactive)
same,GI50,SNB-75,> 100 µM (inactive)
same,GI50,SNB-78,> 100 µM (inactive)
same,GI50,SR,> 100 µM (inactive)
same,GI50,SW-620,> 100 µM (inactive)
same,GI50,TK-10,> 100 µM (inactive)
same,GI50,U-251,> 100 µM (inactive)
same,GI50,UACC-257,> 100 µM (inactive)
same,GI50,UACC-62,> 100 µM (inactive)
same,GI50,UO-31,> 100 µM (inactive)
same,GI50,XF498,> 100 µM (inactive)
CN(C)CCN(C)C(=O)c1cccc2cccc(C(=O)O)c12,GI50,786-0,> 100 µM (inactive)
same,GI50,A498,> 100 µM (inactive)
same,GI50,A549,> 100 µM (inactive)
same,GI50,ACHN,> 100 µM (inactive)
same,GI50,CCRF-CEM,> 100 µM (inactive)
same,GI50,COLO 205,> 100 µM (inactive)
same,GI50,DLD-1,> 100 µM (inactive)
same,GI50,DMS-114,> 100 µM (inactive)
same,GI50,DMS-273,> 100 µM (inactive)
same,GI50,EKVX,> 100 µM (inactive)
same,GI50,HCC 2998,> 100 µM (inactive)
same,GI50,HCT-116,> 100 µM (inactive)
same,GI50,HCT-15,> 100 µM
same,GI50,HL-60,> 100 µM (inactive)
same,GI50,HOP-18,> 100 µM (inactive)
same,GI50,HOP-62,> 100 µM (inactive)
same,GI50,HOP-92,> 100 µM (inactive)
same,GI50,HT-29,> 100 µM (inactive)
same,GI50,IGROV-1,> 100 µM (inactive)
same,GI50,K562,> 100 µM (inactive)
same,GI50,KM-20L2,> 100 µM (inactive)
same,GI50,LOX IMVI,> 100 µM (inactive)
same,GI50,LXFL 529,> 100 µM (inactive)
same,GI50,M14,> 100 µM (inactive)
same,GI50,M19-MEL,> 100 µM (inactive)
same,GI50,MOLT-4,> 100 µM (inactive)
same,GI50,Malme-3M,> 100 µM (inactive)
same,GI50,NCI-H226,> 100 µM (inactive)
same,GI50,NCI-H23,> 100 µM (inactive)
same,GI50,NCI-H460,> 100 µM (inactive)
same,GI50,OVCAR-3,> 100 µM (inactive)
same,GI50,OVCAR-4,> 100 µM (inactive)
same,GI50,OVCAR-5,> 100 µM (inactive)
same,GI50,OVCAR-8,> 100 µM (inactive)
same,GI50,RPMI-8226,> 100 µM (inactive)
same,GI50,RXF 393,> 100 µM (inactive)
same,GI50,RXF 631,> 100 µM (inactive)
same,GI50,SF-268,> 100 µM (inactive)
same,GI50,SF-295,> 100 µM (inactive)
same,GI50,SF-539,> 100 µM (inactive)
same,GI50,SK-MEL-28,> 100 µM (inactive)
same,GI50,SK-MEL-2,0.723 µM (active)
same,GI50,SK-MEL-5,> 100 µM (inactive)
same,GI50,SK-OV-3,> 100 µM (inactive)
same,GI50,SN12C,> 100 µM (inactive)
same,GI50,SNB-19,> 100 µM (inactive)
same,GI50,SNB-75,> 100 µM (inactive)
same,GI50,SNB-78,> 100 µM (inactive)
same,GI50,SR,> 100 µM (inactive)
same,GI50,SW-620,> 100 µM (inactive)
same,GI50,TK-10,> 100 µM (inactive)
same,GI50,U-251,> 100 µM (inactive)
same,GI50,UACC-257,> 100 µM (inactive)
same,GI50,UACC-62,> 100 µM (inactive)
same,GI50,UO-31,> 100 µM (inactive)
same,GI50,XF498,> 100 µM (inactive)
CC(=O)Nc1ccccc1[S+]([O-])c1ccccc1 (stereo not given),GI50,786-0,> 100 µM (inactive)
same,GI50,A498,> 100 µM (inactive)
same,GI50,A549,> 100 µM (inactive)
same,GI50,ACHN,> 100 µM (inactive)
same,GI50,CAKI-1,> 100 µM (inactive)
same,GI50,CCRF-CEM,> 100 µM (inactive)
same,GI50,COLO 205,> 100 µM (inactive)
same,GI50,DLD-1,> 100 µM (inactive)
same,GI50,DMS-114,> 100 µM (inactive)
same,GI50,DMS-273,> 100 µM (inactive)
same,GI50,EKVX,> 100 µM (inactive)
same,GI50,HCC 2998,> 100 µM (inactive)
same,GI50,HCT-116,> 100 µM (inactive)
same,GI50,HCT-15,> 100 µM
same,GI50,HL-60,> 100 µM (inactive)
same,GI50,HOP-18,> 100 µM (inactive)
same,GI50,HOP-62,> 100 µM (inactive)
same,GI50,HOP-92,> 100 µM (inactive)
same,GI50,HT-29,> 100 µM (inactive)
same,GI50,IGROV-1,> 100 µM (inactive)
same,GI50,K562,> 100 µM (inactive)
same,GI50,KM-20L2,> 100 µM (inactive)
same,GI50,KM12,> 100 µM (inactive)
same,GI50,LOX IMVI,> 100 µM (inactive)
same,GI50,LXFL 529,> 100 µM (inactive)
same,GI50,M14,> 100 µM (inactive)
same,GI50,M19-MEL,> 100 µM (inactive)
same,GI50,MOLT-4,> 100 µM (inactive)
same,GI50,Malme-3M,> 100 µM (inactive)
same,GI50,NCI-H226,> 100 µM (inactive)
same,GI50,NCI-H23,> 100 µM (inactive)
same,GI50,NCI-H460,> 100 µM (inactive)
same,GI50,NCI-H522,71.8 µM (inactive)
same,GI50,OVCAR-3,> 100 µM (inactive)
same,GI50,OVCAR-4,> 100 µM (inactive)
same,GI50,OVCAR-5,4.21 µM (inactive)
same,GI50,OVCAR-8,> 100 µM (inactive)
same,GI50,RPMI-8226,> 100 µM (inactive)
same,GI50,RXF 393,> 100 µM (inactive)
same,GI50,RXF 631,> 100 µM (inactive)
same,GI50,SF-268,> 100 µM (inactive)
same,GI50,SF-295,> 100 µM (inactive)
same,GI50,SF-539,> 100 µM (inactive)
same,GI50,SK-MEL-28,> 100 µM (inactive)
same,GI50,SK-MEL-2,> 100 µM (inactive)
same,GI50,SK-MEL-5,> 100 µM (inactive)
same,GI50,SK-OV-3,84.5 µM (inactive)
same,GI50,SN12C,> 100 µM (inactive)
same,GI50,SNB-19,> 100 µM (inactive)
same,GI50,SNB-75,> 100 µM (inactive)
same,GI50,SNB-78,> 100 µM (inactive)
same,GI50,SW-620,> 100 µM (inactive)
same,GI50,TK-10,> 100 µM (inactive)
same,GI50,U-251,> 100 µM (inactive)
same,GI50,UACC-257,> 100 µM (inactive)
same,GI50,UACC-62,> 100 µM (inactive)
same,GI50,UO-31,> 100 µM (inactive)
same,GI50,XF498,> 100 µM (inactive)
